Tested on: Canis familiaris
Assay: The compound was tested for its antihypertensive activity in dogs after intravenous injection
Format: functional, Canis lupus familiaris

| Structure (SMILES) | Relative activity |
| --- | --- |
| CCC(C)(C)N/C(=C\C#N)Nc1cc(Cl)cc(C#N)c1 | <0.3 |
| CC(N/C(=N\C#N)Nc1ccncc1)C(C)(C)C (centres undefined) [PINACIDIL ANHYDROUS] | 1 |
| CCC(C)(C)/N=C(\NC#N)Nc1cc(Cl)cc(C#N)c1 | 2.04 |
| CC(N/C(=C\[N+](=O)[O-])Nc1ccccc1)C(C)(C)C (centres undefined) | 1.82 |

Reference: ChEMBL document CHEMBL1132801, “NMR analysis of tautomerisms of active pinacidil-type potassium channel openers and a less active one” (2000)
